For 22 compounds, EC50 results are on record in patent publication US20240166652A1, “MODULATORS OF THE INTEGRATED STRESS PATHWAY” (Calico Life Sciences LLC, priority 2017, published 2024).

For this assay, the system named is ATF4 luciferase reporter in HEK293T cells. The assay is described as follows: ATF4-Luc assay (ATF4 luciferase reporter, tunicamycin-treated HEK293T cells). Format: cell-based, human. To be noted: Homo sapiens, HEK-293T; HEK293T cells carrying the ATF4 luciferase reporter, 1 μg/mL tunicamycin, 7 hours. (In general: In a reporter assay the amount or activity of a reporter protein is the signal.)
What is called EC50 is the concentration that produces a half-maximal response. In the case of `CCc1cc(COCC23CC(NC(=O)COc4ccc(Cl)c(F)c4)(C2)C3)on1` [Compound 610, 2-(4-chloro-3-fluorophenoxy)-N-(3-{[(3-ethyl-1,2-oxazol-5-yl)methoxy]methyl}bicyclo[1.1.1]pentan-1-yl)acetamide], the EC50 was more than 2000 nM.
To `O=C(COc1ccc(Cl)c(F)c1)NC12CCC(OCCc3ccc(Cl)cc3)(CC1)CC2O` (stereo not shown) [Compound 611, 2-(4-chloro-3-fluorophenoxy)-N-{4-[2-(4-chlorophenyl)ethoxy]-2-hydroxybicyclo[2.2.2]octan-1-yl}acetamide] belongs 10 to 50 nM.
Regarding `O=C(COc1ccc(Cl)c(F)c1)NC12CC(COc3ccccc3)(C1)C2` [Compound 612, 2-(4-chloro-3-fluorophenoxy)-N-[3-(phenoxymethyl)bicyclo[1.1.1]pentan-1-yl]acetamide], the EC50 is more than 2000 nM.
Then `O=C(COc1ccc(Cl)c(F)c1)NC12CC(COc3ccc(C(F)F)cn3)(C1)C2` [Compound 613, 2-(4-chloro-3-fluorophenoxy)-N-[3-({[5-(difluoromethyl)pyridin-2-yl]oxy}methyl)bicyclo[1.1.1]pentan-1-yl]acetamide], with 500 to 2000 nM; and `O=C(COc1ccc(Cl)cc1)NC12CCC(NC(=O)COc3ccc(F)cc3)(CC1)[C@@H](O)C2` [Compound 614, 2-(4-chlorophenoxy)-N-{(3S)-4-[2-(4-fluorophenoxy)acetamido]-3-hydroxybicyclo[2.2.2]octan-1-yl}acetamide], with less than 10 nM; and `O=C(COc1ccc(F)c(F)c1)NC12CCC(NC(=O)COc3ccc(F)c(F)c3)(CC1)[C@@H](O)C2` [Compound 615, N,N′-[(2S)-2-hydroxybicyclo[2.2.2]octane-1,4-diyl]bis[2-(3,4-difluorophenoxy)acetamide]], with less than 10 nM.
Consider `O=C(COc1ccc(F)cc1)NC12CCC(NC(=O)COc3ccc(Cl)cc3)(CC1)[C@@H](O)C2` [Compound 616, 2-(4-chlorophenoxy)-N-{(2S)-4-[2-(4-fluorophenoxy)acetamido]-2-hydroxybicyclo[2.2.2]octan-1-yl}acetamide], for which the concentration giving a half-maximal response (EC50) was less than 10 nM.
As for `O=C(COc1ccc(F)cc1)NC12CCC(NC(=O)COc3ccc(F)c(F)c3)(CC1)[C@@H](O)C2` [Compound 617, 2-(3,4-difluorophenoxy)-N-{(2S)-4-[2-(4-fluorophenoxy)acetamido]-2-hydroxybicyclo[2.2.2]octan-1-yl}acetamide], the EC50 was less than 10 nM.
Then `O=C(COc1ccc(Cl)cc1)NC12CCC(NC(=O)COc3ccc(F)c(F)c3)(CC1)[C@@H](O)C2` [Compound 618, 2-(4-chlorophenoxy)-N-{(3S)-4-[2-(3,4-difluorophenoxy)acetamido]-3-hydroxybicyclo[2.2.2]octan-1-yl}acetamide], with less than 10 nM.
Then `O=C(COc1ccc(F)cc1)NC12CCC(NC(=O)COc3ccc(Cl)c(F)c3)(CC1)[C@@H](O)C2` [Compound 619, 2-(4-chloro-3-fluorophenoxy)-N-{(2S)-4-[2-(4-fluorophenoxy)acetamido]-2-hydroxybicyclo[2.2.2]octan-1-yl}acetamide], with less than 10 nM; and `COC(=O)c1ncc(OCC(=O)NC23CCC(NC(=O)COc4ccc(Cl)c(F)c4)(CC2)[C@@H](O)C3)cn1` [Compound 622, methyl 5-[2-({(3S)-4-[2-(4-chloro-3-fluorophenoxy)acetamido]-3-hydroxybicyclo[2.2.2]octan-1-yl}amino)-2-oxoethoxy]pyrimidine-2-carboxylate], with 500 to 2000 nM; and `N#Cc1ncc(OCC(=O)NC23CCC(NC(=O)COc4ccc(Cl)c(F)c4)(CC2)[C@@H](O)C3)cn1` [Compound 623, 2-(4-chloro-3-fluorophenoxy)-N-[(2S)-4-{2-[(2-cyanopyrimidin-5-yl)oxy]acetamido}-2-hydroxybicyclo[2.2.2]octan-1-yl]acetamide], with 10 to 50 nM.
For the compound `CCOc1ncc(OCC(=O)NC23CCC(NC(=O)COc4ccc(Cl)c(F)c4)(CC2)[C@@H](O)C3)cn1` [Compound 624, 2-(4-chloro-3-fluorophenoxy)-N-[(2S)-4-{2-[(2-ethoxypyrimidin-5-yl)oxy]acetamido}-2-hydroxybicyclo[2.2.2]octan-1-yl]acetamide], the EC50 is less than 10 nM.
As for `COc1ncc(OCC(=O)NC23CCC(NC(=O)COc4cnc(OC)nc4)(CC2)[C@@H](O)C3)cn1` [Compound 626, N,N′-[(2S)-2-hydroxybicyclo[2.2.2]octane-1,4-diyl]bis{2-[(2-methoxypyrimidin-5-yl)oxy]acetamide}], the EC50 was more than 2000 nM.
To `O=C(COc1cnc(C(F)(F)F)nc1)NC12CCC(NC(=O)COc3ccc(Cl)c(F)c3)(CC1)[C@@H](O)C2` [Compound 627, 2-(4-chloro-3-fluorophenoxy)-N-[(2S)-2-hydroxy-4-(2-{[2-(trifluoromethyl)pyrimidin-5-yl]oxy}acetamido)bicyclo[2.2.2]octan-1-yl]acetamide] belongs less than 10 nM; to `O=C(COc1cnc(OCC(F)(F)F)nc1)NC12CCC(NC(=O)COc3ccc(Cl)c(F)c3)(CC1)[C@@H](O)C2` [Compound 629, 2-(4-chloro-3-fluorophenoxy)-N-[(2S)-2-hydroxy-4-(2-{[2-(2,2,2-trifluoroethoxy)pyrimidin-5-yl]oxy}acetamido)bicyclo[2.2.2]octan-1-yl]acetamide], 50 to 250 nM.
Regarding `O=C(COc1ncc(C(F)(F)F)cn1)NC12CCC(NC(=O)COc3ccc(Cl)c(F)c3)(CC1)[C@@H](O)C2` [Compound 630, 2-(4-chloro-3-fluorophenoxy)-N-[(2S)-2-hydroxy-4-(2-{[5-(trifluoromethyl)pyrimidin-2-yl]oxy}acetamido)bicyclo[2.2.2]octan-1-yl]acetamide], the EC50 is less than 10 nM.
Then `COc1ncc(OCC(=O)NC23CCC(NC(=O)COc4ccc(F)cc4)(CC2)[C@@H](O)C3)cn1` [Compound 631, 2-(4-fluorophenoxy)-N-[(2S)-2-hydroxy-4-{2-[(2-methoxypyrimidin-5-yl)oxy]acetamido}bicyclo[2.2.2]octan-1-yl]acetamide], with 50 to 250 nM.
To `COc1ncc(OCC(=O)NC23CCC(NC(=O)COc4ccc5c(c4)OC(F)(F)O5)(CC2)[C@@H](O)C3)cn1` [Compound 632, 2-[(2,2-difluoro-2H-1,3-benzodioxol-5-yl)oxy]-N-[(2S)-2-hydroxy-4-{2-[(2-methoxypyrimidin-5-yl)oxy]acetamido}bicyclo[2.2.2]octan-1-yl]acetamide] belongs 10 to 50 nM; to `COc1ncc(OCC(=O)NC23CCC(NC(=O)COc4ccc(C(F)(F)F)c(F)c4)(CC2)[C@@H](O)C3)cn1` [Compound 633, 2-[3-fluoro-4-(trifluoromethyl)phenoxy]-N-[(2S)-2-hydroxy-4-{2-[(2-methoxypyrimidin-5-yl)oxy]acetamido}bicyclo[2.2.2]octan-1-yl]acetamide], 10 to 50 nM.
To `COc1ncc(OCC(=O)NC23CCC(NC(=O)COc4ccc(F)c(F)c4)(CC2)[C@@H](O)C3)cn1` [Compound 634, 2-(3,4-difluorophenoxy)-N-[(2S)-2-hydroxy-4-{2-[(2-methoxypyrimidin-5-yl)oxy]acetamido}bicyclo[2.2.2]octan-1-yl]acetamide] belongs 50 to 250 nM; to `COc1ncc(OCC(=O)NC23CCC(NC(=O)COc4ccc(Cl)cc4)(CC2)[C@@H](O)C3)cn1` [Compound 635, 2-(4-chlorophenoxy)-N-[(2S)-2-hydroxy-4-{2-[(2-methoxypyrimidin-5-yl)oxy]acetamido}bicyclo[2.2.2]octan-1-yl]acetamide], 10 to 50 nM.
